Our source for the IC50 values is ChEMBL document CHEMBL1138665, “Probing the activity differences of simple and complex brominated aryl compounds against 15-soybean, 15-human, and 12-human lipoxygenase” (J Med Chem, 2004).

The target of assay [1] is T1, Polyunsaturated fatty acid lipoxygenase ALOX15 (Homo sapiens, UniProt P16050).
T1 sequence (P16050 whole entry): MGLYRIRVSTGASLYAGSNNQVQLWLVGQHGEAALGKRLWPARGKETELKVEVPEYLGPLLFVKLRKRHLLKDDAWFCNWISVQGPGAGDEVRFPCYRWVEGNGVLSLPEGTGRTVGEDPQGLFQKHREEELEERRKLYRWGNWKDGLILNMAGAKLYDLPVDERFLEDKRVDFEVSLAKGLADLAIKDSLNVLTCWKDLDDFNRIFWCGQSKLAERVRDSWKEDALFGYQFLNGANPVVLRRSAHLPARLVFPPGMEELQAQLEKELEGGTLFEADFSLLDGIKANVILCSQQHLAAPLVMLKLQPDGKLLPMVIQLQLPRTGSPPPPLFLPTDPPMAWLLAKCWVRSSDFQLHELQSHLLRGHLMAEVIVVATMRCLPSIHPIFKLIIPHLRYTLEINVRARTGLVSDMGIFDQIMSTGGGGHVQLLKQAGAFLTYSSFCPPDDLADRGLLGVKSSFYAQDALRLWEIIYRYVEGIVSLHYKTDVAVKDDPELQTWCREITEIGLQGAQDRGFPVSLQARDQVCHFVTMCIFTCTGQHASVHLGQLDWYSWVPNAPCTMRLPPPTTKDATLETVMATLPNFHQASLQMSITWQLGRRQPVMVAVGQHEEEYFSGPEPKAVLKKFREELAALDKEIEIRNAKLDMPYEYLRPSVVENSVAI
As to the kind of experiment: Inhibitory effect on human reticulocyte 15-lipoxygenase.

Assay [2] in a line: Inhibitory effect on soybean 15-lipoxygenase. On the set-up: species or system Glycine max.
Assay [3] deals with T2, Polyunsaturated fatty acid lipoxygenase ALOX12 (Homo sapiens, UniProt P18054).
T2 sequence (P18054 whole entry): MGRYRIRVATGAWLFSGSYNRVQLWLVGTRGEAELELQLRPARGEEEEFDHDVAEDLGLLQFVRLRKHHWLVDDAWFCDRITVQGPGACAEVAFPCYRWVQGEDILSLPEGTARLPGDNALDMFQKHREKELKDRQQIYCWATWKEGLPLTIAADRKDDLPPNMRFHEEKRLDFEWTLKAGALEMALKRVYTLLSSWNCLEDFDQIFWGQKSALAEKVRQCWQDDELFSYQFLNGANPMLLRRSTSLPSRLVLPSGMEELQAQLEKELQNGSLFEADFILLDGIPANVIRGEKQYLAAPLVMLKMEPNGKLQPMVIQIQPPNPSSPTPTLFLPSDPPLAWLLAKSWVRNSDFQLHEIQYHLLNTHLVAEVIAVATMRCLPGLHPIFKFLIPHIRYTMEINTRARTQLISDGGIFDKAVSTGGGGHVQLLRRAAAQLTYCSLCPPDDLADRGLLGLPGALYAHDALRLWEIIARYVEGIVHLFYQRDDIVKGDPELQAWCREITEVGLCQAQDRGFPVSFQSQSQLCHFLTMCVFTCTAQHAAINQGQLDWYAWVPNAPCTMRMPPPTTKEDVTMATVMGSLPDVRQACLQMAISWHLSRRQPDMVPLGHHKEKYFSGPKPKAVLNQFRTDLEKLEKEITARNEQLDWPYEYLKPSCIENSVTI
The experiment in a line: Inhibitory effect on human platelet 12-lipoxygenase.

For the molecule `COc1cc(Br)cc(Br)c1Oc1cc(Br)cc(Br)c1O`, the values for the half-maximal inhibitory concentration (IC50) in assay [1], in assay [2] and in assay [3] were 10 µM, more than 100 µM and 12 µM, respectively.

Take `Oc1cccc(Br)c1`: the half-maximal inhibitory concentration (IC50) in assay [1], in assay [2] and in assay [3] was more than 100 µM throughout.

With `Oc1cc(Br)cc2c1Oc1cc(Br)cc(Br)c1O2` [SPONGIADIOXIN C], the IC50 is 0.8 µM in assay [1], more than 100 µM in assay [2] and 30 µM in assay [3].

Regarding `Oc1c(Br)c(Br)c(Br)c(Br)c1Oc1ccc(Br)cc1Br`, the 50% inhibitory concentration (IC50) in assay [1] turned out to be 1.8 µM; in assay [2], 7 µM; in assay [3] it was 0.7 µM.

With `OCc1ccc(Br)cc1`, the half-inhibitory concentration (IC50) in assay [1], in assay [2] and in assay [3] was more than 100 µM in each case.

As to `CC(C)(c1cc(Br)c(O)c(Br)c1)c1cc(Br)c(O)c(Br)c1`, the values for the IC50 in assay [1], in assay [2] and in assay [3] were 4 µM, more than 100 µM and 10 µM, respectively.

For `Oc1c(Br)cc(Br)cc1Oc1c(Br)cc(Br)c(Br)c1O`, the values for the IC50 in assay [1], in assay [2] and in assay [3] were 2.2 µM, more than 100 µM and 6.2 µM, respectively.

Take `Oc1cc(Br)c(Br)c2c1Oc1cc(Br)cc(Br)c1O2` [SPONGIADIOXIN A]: the IC50 was more than 100 µM in assay [2] and 50 µM in assay [3].

For the molecule `Oc1c(Br)cc(Br)cc1Oc1c(O)c(Br)c(Br)c(Br)c1Br`, the IC50 in assay [1] is 0.79 µM; in assay [2] it was more than 100 µM; in assay [3] it was 0.41 µM.

For the molecule `Oc1ccc(Br)cc1Oc1c(O)ccc(Br)c1Br`, the half-maximal inhibitory concentration (IC50) was more than 100 µM in assay [2] and 47 µM in assay [3].

For the molecule `O=C1N/C=C/c2ccc(c(Br)c2)Oc2cc(cc(Br)c2O)CCNC(=O)/C(=N/O)Cc2ccc(c(Br)c2)Oc2cc(cc(Br)c2O)C/C1=N\O` [BASTADIN 7], the IC50 in assay [1] was determined as 4 µM; in assay [2] it was 27 µM; in assay [3], 2.3 µM.

Consider `Oc1ccc(Br)cc1Br`, for which the IC50 in assay [2] and in assay [3] was more than 100 µM each time.

On to `CC(C)(c1ccc(O)c(Br)c1)c1cc(Br)c(O)c(Br)c1`, for which the IC50 in assay [1] is 5 µM; in assay [2] it was more than 100 µM; in assay [3], 7 µM.

As to `CCOc1ccc(Br)cc1`, the half-inhibitory concentration (IC50) in assay [1], in assay [2] and in assay [3] was more than 100 µM in each case.

For the molecule `Oc1c(Br)cccc1Br`, the half-inhibitory concentration (IC50) in assay [1], in assay [2] and in assay [3] was more than 100 µM throughout.

`CC(Cc1ccc(O)c(O)c1)[C@H](C)Cc1ccc(O)c(O)c1` (stereo not given in full) registered a half-inhibitory concentration (IC50) in assay [2] of 0.18 µM.

As for `O=C(N/C=C/c1ccc(O)c(Br)c1)/C(Cc1cc(Br)c(O)c(Oc2c(Br)cc(C/C(=N\O)C(=O)NCCc3ccc(O)c(Br)c3)cc2Br)c1)=N/O`, the results for the 50% inhibitory concentration (IC50) in assay [1], in assay [2] and in assay [3] were 2 µM, 59 µM and 0.4 µM, respectively.

For `Oc1ccccc1Br`, the half-inhibitory concentration (IC50) in assay [1], in assay [2] and in assay [3] was more than 100 µM in each case.

Take `Oc1c(Br)cc(Br)c(Br)c1Oc1ccc(Br)cc1Br`: the IC50 in assay [1] was 5 µM; in assay [2], 9 µM; in assay [3] it was 6 µM.

For the molecule `Oc1ccc(Br)cc1`, the half-maximal inhibitory concentration (IC50) in assay [1] was 55 µM; in assay [2] it was 48 µM; in assay [3], more than 100 µM.
